Measurements as given in patent US9822342B2, “Method of efficiently inducing cardiomyocytes” (KYOTO UNIVERSITY, priority 2013, dated 2017).

How the values were obtained:
Format in all cases: cell-based, human
[1] = system: 201B7 cell line (iPS cells); assay: Cardiomyocyte induction, conventional method (comparative example); cTNT-positive cells by flow cytometry; conditions: Day 20; 1 μM IWP-3 with 10 ng/mL VEGF Day 4 to Day 8; no dissociation/reaggregation
Method: Three days before differentiation induction (Day −3), the 201B7 cell line was treated with Collagenase type B solution (Roche) for 5 minutes, and the solution was then removed, followed by treating the cells with 0.25% trypsin-EDTA (Invitrogen) for 2 to 3 minutes. After washing the cells with PBS solution (Nacalai Tesque), the obtained iPS cells were detached with a cell scraper and recovered. The iPS cells were then plated on a well of a Matrigel-coated 6-well plate, and cultured in MEF (mouse fetal fibroblast)-conditioned medium (MEF-CM) for 3 days.
Subsequently (Day 0), treatment with Collagenase type B solution was carried out for 10 minutes. After removing the solution, the iPS cells were treated with 0.25% trypsin-EDTA for 1 to 2 minutes, and then detached with a cell scraper. STEMPRO 34 (Invitrogen) supplemented with 1% L-glutamine (Invitrogen), 150 μg/mL transferrin (Roche), 50 μg/mL ascorbic acid (Sigma), 3.9×10^−3% MTG (1-Thyoglycerol) (Sigma), 10 μM Rock inhibitor (Y-27632, Wako), and 2 ng/mL BMP4 (R&D) was added to the cells, and the cells were then divided into small clusters by pipetting. The resulting cell clusters were transferred to a well of a low-adhesion […], and culture was carried out at 37° C. under 5% oxygen to prepare embryoid bodies (EBs). […]
(§1) After the culture (Day 20), the obtained cells were evaluated. […]

[2] = system: 201B7 cell line (iPS cells); assay: Modified method for inducing cardiomyocytes (IW); cTNT-positive cells by flow cytometry; conditions: Day 20
Method: After treatment of the 201B7 cell line with CTK solution (ReproCELL) for 2 minutes, the solution was removed. Subsequently, the cells were treated with Accumax (Innovative Cell Technologies) for 5 minutes, and dissociated into single cells by pipetting. The cells were recovered by centrifugation, and plated on a low-adhesion 96-well dish (Corning) at 2500 cells/well. Culture was carried out at 37° C. under 5% oxygen in STEMPRO 34 supplemented with 1% L-glutamine, 150 μg/mL transferrin, 50 μg/mL ascorbic acid (Sigma), 3.9×10^−3% MTG, 10 μM Rock inhibitor, 2 ng/mL BMP4 (R&D), and 0.50% Matrigel (Growth Factor Reduced), to allow formation of EBs (Day 0). It was found, in this culture, that the efficiency of induction of cardiomyocytes decreases in cases where the EB cells are formed from not more than 1000 cells or not less than 4000 cells per well.
On the next day (Day 1), an equal volume of STEMPRO 34 supplemented with 1% L-glutamine, 150 μg/mL transferrin, 50 μg/mL ascorbic acid, 3.9×10^−3% MTG, 18 ng/mL BMP4, 10 ng/mL bFGF, and 12 ng/mL activin A was added to the 96-well plate in which the EBs were cultured, and culture was carried out at 37° C. under 5% oxygen for 3 days.
Subsequently (Day 4), the obtained EBs were allowed to naturally precipitate, and the medium was removed. […]
as §1

[3] = system: 427F1, 610B1, 604A1, 648A1 and KhES3 cell lines; assay: IW and IWDS methods, timing of dissociation/reaggregation (2); conditions: IW method; dissociation at d2.5 to d4; evaluated at d15
Description: (§2) In the modified method for inducing cardiomyocytes (IW) and the IWDS method described above, the timing of the dissociation into single cells and the reaggregation carried out on Day 4 was changed to investigate the effect of the change on pluripotent stem cell lines (KhES1 cell line, KhES3 cell line, MYH cell line, 409B2 cell line, 427F1 cell line, 606A1 cell line, 610B1 cell line, 457C1 cell line, 604A1 cell line, and 648A1 cell line) (FIG. 8). The culture from Day 1 in STEMPRO 34 supplemented with 1% L-glutamine, 150 μg/mL transferrin, 50 μg/mL ascorbic acid, 3.9×10^−3% MTG, 18 ng/mL BMP4, 10 ng/mL bFGF, and 12 ng/mL activin A was carried out for various periods within the range of 1.5 days to 5 days. Thereafter, dissociation and reaggregation of the obtained cells were carried out. That is, dissociation of each cell line was carried out at various times between Day 2.5 (d2.5) and Day 6 (d6) after the induction at intervals of 6 hours, followed by reaggregation culture.
(§3) In the last step, the cells of each cell line were cultured under normal oxygen concentration until d15 in STEMPRO 34 supplemented with 1% L-glutamine, 150 μg/mL transferrin, 50 μg/mL ascorbic acid, 3.9×10^−3% MTG, 10 ng/mL VEGF, and 5 ng/mL bFGF, and evaluated based on the content of cTNT-positive cells.

[4] = system: MYH, 409B2, 606A1, 457C1 and KhES1 cell lines; assay: as above; conditions: IW method; dissociation at d2.5 to d5; evaluated at d15
Description: as §2, §3

SMILES: Cc1ccc2nc(NC(=O)CSc3nc4c(c(=O)n3-c3ccc(F)cc3)SCC4)sc2c1 [IWP-3]
- content of cTNT-positive cells [1]: 58.6%
- content of cTNT-positive cells ([2]; dissociation/reaggregation on Day 4, 1 μM IWP-3 with 10 ng/mL VEGF for 4 days): 82.9%
- content of cTNT-positive cells ([2]; no dissociation into single cells on Day 4, medium with 1 μM IWP-3 and 10 ng/mL VEGF): 69.3%
- efficiency of cardiomyocyte induction (content of cTNT-positive cells) [3]: high efficiency
- efficiency of cardiomyocyte induction (content of cTNT-positive cells) [4]: high efficiency
